Arresting postnasal drip and sedation data for one compound are collected here from patent publication US20190269703A1, “MATERIALS AND METHODS FOR TREATING CHRONIC COUGH” (Mayo Foundation for Medical Education and Research, priority 2016, published 2019).

SMILES strings stand for the structures.

The subject of data set [1] is postnasal drip. As to the kind of experiment: Treatment of postnasal drip: nasal spray delivered into the nasal cavity, patient responses evaluated. Format: in vivo, human. To be noted: 34 μg/spray diphenhydramine in combination with an anticholinergic and a glucocorticosteroid (mometasone furoate 1.7 mg/5 mL, ipratropium bromide 1 mg/5 mL, diphenhydramine 1.7 mg/5 mL); two sprays to each nostril daily; evaluated after 4 to 6 weeks.
Description: A composition including mometasone furoate (1.7 mg/5 mL), ipratropium bromide (1 mg/5 mL), and diphenhydramine (1.7 mg/5 mL) was prepared. A specially configured nasal atomizer having a large aerosol plume and a three inch stem was used to bypass the nasal valve area and deliver medication into the nasal cavity. Two sprays were administered to each nostril daily. Patient responses were evaluated after 4 to 6 weeks.

Data set [2] can be described thus: Sedation / patient tolerance of the nasal spray in use. The class given is in vivo, human. To be noted: 34 micrograms/spray (or 69 μg daily) to each nostril, triple combination nasal spray; 15,000 units dispensed. As to the method:
A specially configured nasal atomizer having a large aerosol plume and a three inch stem was used to bypass the nasal valve area and deliver medication into the nasal cavity. Two sprays were administered to each nostril daily. Patient responses were evaluated after 4 to 6 weeks.
34 micrograms/spray (or 69 μg daily) to each nostril is […] less than the lowest dose (12.5 milligrams) of oral diphenhydramine.

For the compound `CN(C)CCOC(c1ccccc1)c1ccccc1` [Diphenhydramine, diphenhydramine], the arresting postnasal drip entry in data set [1] is listed as “effective”. The sedation result in data set [2] is “sedation has not been an issue”.
